One assay concerns AMPKalpha. The assay can be described thus: Kinase selectivity assay (CEREP, HTRF). The format is biochemical, human. On the procedure:
(§1) The inhibitory activity of selected compounds was evaluated against a panel of 45 different kinase enzymes by CEREP, France. The assays were performed using standard HTRF assay methods as documented by CEREP against the human orthologues of Abl kinase, Akt1/PKBa, AMPKa, BMX kinase (Etk), Brk, CaMK2a, CaMK4, CDC2/CDK1 (cycB), CHK1, CHK2, c-Met kinase, CSK, EphB4 kinase, ERK1, ERK2 (P42mapk), FGFR2 kinase, FGFR4 kinase, FLT-1 kinase (VEGFR1), FLT-3 kinase, Fyn kinase, IGF1R kinase, IRK (InsR), JNK 2, KDR kinase (VEGFR2), Lck kinase, Lyn kinase, MAPKAPK2, MEK1/MAP2K1, p38a kinase, p38d kinase, p38g kinase, PDGFRb kinase, PDK1, PKA, PKCa, PKCb1, PKCb2, PKCg, Ret kinase, ROCK2, RSK2, Src kinase, Syk, and TRKA. The % Inhibition was determined by the formula; % Inhibition=100×(1−(experimental value−background value)/(high activity control−background value)).

Assay [1] concerns MDA-MB-468 basal breast cancer cell line. The assay can be described thus: Cell growth inhibition, Sulforhodamine B (SRB) assay. In kind it is cell-based. The conditions noted are these: Homo sapiens, MDA-MB-468, 120 h, read-out: Cell Line GI50 Range MDA-MB-468.
Description: Breast cancer and normal cells were seeded at various concentrations, ranging from 1500 to 4000 per 80 μl according to cell growth rate, into 96-well plates 24 hours before compound overlay. Each 10 mM stock solution in 100% DMSO of the compounds was diluted with Opti-MEM I Reduced-Serum Medium (Invitrogen, Canada) to make concentration ranges from 50 nM to 250 μM. 20 μl from each concentration was added to the cells to make the final concentration range from 10 nM to 50 μM. The cells were cultured at 37° C. for 5 days before the Sulforhodamine B (SRB) assay was performed to assess cell survival. SRB is a water-soluble dye that binds to the basic amino acids of cellular proteins. Thus, colorimetric measurement of the bound dye provides an estimate of the total protein mass and is related to cell number. The cells were fixed in situ by gently aspirating off the culture media and adding 50 μl ice-cold 10% Tri-chloroacetic Acid (TCA) per well and incubation at 4° C. for 30-60 min. The plates were washed with tap water five times and allowed to air dry for 5 min. 50 μl of 0.4% (w/v) SRB solution in 1% (v/v) acetic acid was added per well and incubated for 30 mM at RT for staining. Following staining, plates were washed four times with 1% acetic acid to remove any unbound dye and then allowed to air dry for 5 min. The stain was solubilized with 100 μl of 10 mM Tris pH 10.5 per well. Absorbances were read at 570 nm. The cell survival percentage at each compound concentration was calculated over the cell DMSO control, which was growing in the presence of 0.1% DMSO (0.5% in the case of 50 μM compounds). Cell viability GI50 values were calculated using GraphPad PRISM software (GraphPad Software, Inc.).
The next assay addresses CHK1 (Homo sapiens, UniProt O14757). Briefly: Kinase selectivity assay (CEREP, HTRF). The format is biochemical. The conditions noted are these: read-out: % Inhibition at 10 μM Concentration. On the procedure: as §1
A general note: In TR-FRET formats the signal depends on donor and acceptor labels being close together.

The next assay has as its target RSK2 (Homo sapiens, UniProt P51812). Briefly: Kinase selectivity assay (CEREP, HTRF). The format is biochemical. The conditions noted are these: read-out: % Inhibition at 10 μM Concentration. On the procedure: as §1
For the next assay, the target named is ERK (P42mapk) (Homo sapiens, UniProt P28482). The assay can be described thus: Kinase selectivity assay (CEREP, HTRF). The format is biochemical. The following applies: read-out: % Inhibition at 10 μM Concentration. On the procedure: as §1
For the next assay, the target named is PDGFRbeta (Homo sapiens, UniProt P09619). The assay can be described thus: Kinase selectivity assay (CEREP, HTRF). In kind it is biochemical. The conditions noted are these: read-out: % Inhibition at 10 μM Concentration. On the procedure:
as §1

The next assay concerns the target PKA (Homo sapiens, UniProt P17612). Briefly: Kinase selectivity assay (CEREP, HTRF). The conditions noted are these: read-out: % Inhibition at 10 μM Concentration. The format is biochemical. On the procedure: as §1
Another assay deals with CSK (Homo sapiens, UniProt P41240). Briefly: Kinase selectivity assay (CEREP, HTRF). The following applies: read-out: % Inhibition at 10 μM Concentration. The format is biochemical. On the procedure:
as §1

The target in a further assay is ERK1 (Homo sapiens, UniProt P27361). The assay can be described thus: Kinase selectivity assay (CEREP, HTRF). In kind it is biochemical. The following applies: read-out: % Inhibition at 10 μM Concentration. On the procedure: as §1
A further assay has as its target p38alpha (Homo sapiens, UniProt Q16539). The assay can be described thus: Kinase selectivity assay (CEREP, HTRF). In kind it is biochemical. The following applies: read-out: % Inhibition at 10 μM Concentration. On the procedure:
as §1

The next assay concerns the target Abl kinase (Homo sapiens, UniProt P00519). The assay can be described thus: Kinase selectivity assay (CEREP, HTRF). The format is biochemical. The following applies: read-out: % Inhibition at 10 μM Concentration. On the procedure:
as §1

The next assay addresses Lck (Homo sapiens, UniProt P06239). The assay can be described thus: Kinase selectivity assay (CEREP, HTRF). The conditions noted are these: read-out: % Inhibition at 10 μM Concentration. The format is biochemical. On the procedure: as §1
In a further assay the target is CHK2 (Homo sapiens, UniProt O96017). The assay can be described thus: Kinase selectivity assay (CEREP, HTRF). In kind it is biochemical. The following applies: read-out: % Inhibition at 10 μM Concentration. On the procedure:
as §1

A further assay has as its target CDC2/CDK1 (Homo sapiens, UniProt P06493). The assay can be described thus: Kinase selectivity assay (CEREP, HTRF). The format is biochemical. The conditions noted are these: read-out: % Inhibition at 10 μM Concentration. On the procedure:
as §1

The target in a further assay is FGFR4 (Homo sapiens, UniProt P22455). The assay can be described thus: Kinase selectivity assay (CEREP, HTRF). The format is biochemical. The following applies: read-out: % Inhibition at 10 μM Concentration. On the procedure:
as §1

The target of the next assay is ROCK2 (Homo sapiens, UniProt O75116). The assay can be described thus: Kinase selectivity assay (CEREP, HTRF). In kind it is biochemical. The conditions noted are these: read-out: % Inhibition at 10 μM Concentration. On the procedure: as §1
The next assay has as its target MEK1/MAP2K1 (Homo sapiens, UniProt Q02750). Briefly: Kinase selectivity assay (CEREP, HTRF). The format is biochemical. The conditions noted are these: read-out: % Inhibition at 10 μM Concentration. On the procedure:
as §1

Another assay concerns the target c-Met (Homo sapiens, UniProt P08581). Briefly: Kinase selectivity assay (CEREP, HTRF). The conditions noted are these: read-out: % Inhibition at 10 μM Concentration. In kind it is biochemical. On the procedure:
as §1

Another assay has as its target CaMK4 (Homo sapiens, UniProt Q16566). The assay can be described thus: Kinase selectivity assay (CEREP, HTRF). The conditions noted are these: read-out: % Inhibition at 10 μM Concentration. In kind it is biochemical. On the procedure:
as §1

A further assay concerns the target JNK 2 (Homo sapiens, UniProt P45984). The assay can be described thus: Kinase selectivity assay (CEREP, HTRF). The format is biochemical. The conditions noted are these: read-out: % Inhibition at 10 μM Concentration. On the procedure: as §1
Another assay has as its target IRK (InsR) (Homo sapiens, UniProt P06213). Briefly: Kinase selectivity assay (CEREP, HTRF). The format is biochemical. The conditions noted are these: read-out: % Inhibition at 10 μM Concentration. On the procedure: as §1
A further assay concerns the target Brk (Homo sapiens, UniProt Q13882). Briefly: Kinase selectivity assay (CEREP, HTRF). The format is biochemical. The conditions noted are these: read-out: % Inhibition at 10 μM Concentration. On the procedure: as §1
The next assay has as its target MAPKAPK2 (Homo sapiens, UniProt P49137). The assay can be described thus: Kinase selectivity assay (CEREP, HTRF). In kind it is biochemical. The following applies: read-out: % Inhibition at 10 μM Concentration. On the procedure:
as §1

The target in another assay is FLT-1 (VEGFR1) (Homo sapiens, UniProt P17948). Briefly: Kinase selectivity assay (CEREP, HTRF). The format is biochemical. The conditions noted are these: read-out: % Inhibition at 10 μM Concentration. On the procedure: as §1
In a further assay the target is EphB4 (Homo sapiens, UniProt P54760). The assay can be described thus: Kinase selectivity assay (CEREP, HTRF). The format is biochemical. The following applies: read-out: % Inhibition at 10 μM Concentration. On the procedure: as §1
The next assay deals with Src (Homo sapiens, UniProt P12931). The assay can be described thus: Kinase selectivity assay (CEREP, HTRF). The format is biochemical. The conditions noted are these: read-out: % Inhibition at 10 μM Concentration. On the procedure: as §1
A further assay has as its target Lyn (Homo sapiens, UniProt P07948). The assay can be described thus: Kinase selectivity assay (CEREP, HTRF). The format is biochemical. The conditions noted are these: read-out: % Inhibition at 10 μM Concentration. On the procedure: as §1
The next assay deals with PDK1 (Homo sapiens, UniProt O15530). Briefly: Kinase selectivity assay (CEREP, HTRF). In kind it is biochemical. The following applies: read-out: % Inhibition at 10 μM Concentration. On the procedure: as §1
A further assay concerns the target TRKA (Homo sapiens, UniProt P04629). Briefly: Kinase selectivity assay (CEREP, HTRF). The format is biochemical. The conditions noted are these: read-out: % Inhibition at 10 μM Concentration. On the procedure:
as §1

The target in a further assay is Ret (Homo sapiens, UniProt P07949). The assay can be described thus: Kinase selectivity assay (CEREP, HTRF). In kind it is biochemical. The following applies: read-out: % Inhibition at 10 μM Concentration. On the procedure:
as §1

The next assay has as its target PKCbeta 2 (Homo sapiens, UniProt P05771). The assay can be described thus: Kinase selectivity assay (CEREP, HTRF). In kind it is biochemical. The conditions noted are these: read-out: % Inhibition at 10 μM Concentration. On the procedure: as §1
The target of another assay is Syk (Homo sapiens, UniProt P43405). Briefly: Kinase selectivity assay (CEREP, HTRF). In kind it is biochemical. The following applies: read-out: % Inhibition at 10 μM Concentration. On the procedure: as §1
Assay [2] relates to MDA-MB-231 breast cancer cell line. The assay can be described thus: Cell growth inhibition, SRB assay, extended panel. The format is cell-based. The conditions noted are these: Homo sapiens, MDA-MB-231, read-out: GI50 Range MDA-MB-231. Background: The SRB assay estimates cell density from bound dye.
Description: Breast cancer and normal cells were seeded at various concentrations, ranging from 1500 to 4000 per 80 μl according to cell growth rate, into 96-well plates 24 hours before compound overlay. Each 10 mM stock solution in 100% DMSO of the compounds was diluted with Opti-MEM I Reduced-Serum Medium (Invitrogen, Canada) to make concentration ranges from 50 nM to 250 μM. 20 μl from each concentration was added to the cells to make the final concentration range from 10 nM to 50 μM. The cells were cultured at 37° C. for 5 days before the Sulforhodamine B (SRB) assay was performed to assess cell survival. SRB is a water-soluble dye that binds to the basic amino acids of cellular proteins. Thus, colorimetric measurement of the bound dye provides an estimate of the total protein mass and is related to cell number. The cells were fixed in situ by gently aspirating off the culture media and adding 50 μl ice-cold 10% Tri-chloroacetic Acid (TCA) per well and incubation at 4° C. for 30-60 min. The plates were washed with tap water five times and allowed to air dry for 5 min. […] Absorbances were read at 570 nm. The cell survival percentage at each compound concentration was calculated over the cell DMSO control, which was growing in the presence of 0.1% DMSO (0.5% in the case of 50 μM compounds). Cell viability GI50 values were calculated using GraphPad PRISM software (GraphPad Software, Inc.).

Where two headings read alike, the source gives them in different places.

Sequence of Lyn (P07948 whole entry): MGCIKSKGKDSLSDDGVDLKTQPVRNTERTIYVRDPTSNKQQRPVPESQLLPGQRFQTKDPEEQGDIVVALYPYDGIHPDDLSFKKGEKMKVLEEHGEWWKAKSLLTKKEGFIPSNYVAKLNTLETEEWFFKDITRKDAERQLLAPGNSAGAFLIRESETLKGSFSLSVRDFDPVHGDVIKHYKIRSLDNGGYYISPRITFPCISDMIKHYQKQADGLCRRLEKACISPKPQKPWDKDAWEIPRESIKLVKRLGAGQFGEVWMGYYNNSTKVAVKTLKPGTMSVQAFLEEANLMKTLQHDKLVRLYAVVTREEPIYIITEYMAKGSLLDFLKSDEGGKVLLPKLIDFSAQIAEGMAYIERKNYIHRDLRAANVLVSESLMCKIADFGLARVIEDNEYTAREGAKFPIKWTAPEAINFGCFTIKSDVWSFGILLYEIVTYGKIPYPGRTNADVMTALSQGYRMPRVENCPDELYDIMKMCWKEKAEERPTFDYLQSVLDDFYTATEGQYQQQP
Sequence of IRK (InsR) (P06213 28-1382): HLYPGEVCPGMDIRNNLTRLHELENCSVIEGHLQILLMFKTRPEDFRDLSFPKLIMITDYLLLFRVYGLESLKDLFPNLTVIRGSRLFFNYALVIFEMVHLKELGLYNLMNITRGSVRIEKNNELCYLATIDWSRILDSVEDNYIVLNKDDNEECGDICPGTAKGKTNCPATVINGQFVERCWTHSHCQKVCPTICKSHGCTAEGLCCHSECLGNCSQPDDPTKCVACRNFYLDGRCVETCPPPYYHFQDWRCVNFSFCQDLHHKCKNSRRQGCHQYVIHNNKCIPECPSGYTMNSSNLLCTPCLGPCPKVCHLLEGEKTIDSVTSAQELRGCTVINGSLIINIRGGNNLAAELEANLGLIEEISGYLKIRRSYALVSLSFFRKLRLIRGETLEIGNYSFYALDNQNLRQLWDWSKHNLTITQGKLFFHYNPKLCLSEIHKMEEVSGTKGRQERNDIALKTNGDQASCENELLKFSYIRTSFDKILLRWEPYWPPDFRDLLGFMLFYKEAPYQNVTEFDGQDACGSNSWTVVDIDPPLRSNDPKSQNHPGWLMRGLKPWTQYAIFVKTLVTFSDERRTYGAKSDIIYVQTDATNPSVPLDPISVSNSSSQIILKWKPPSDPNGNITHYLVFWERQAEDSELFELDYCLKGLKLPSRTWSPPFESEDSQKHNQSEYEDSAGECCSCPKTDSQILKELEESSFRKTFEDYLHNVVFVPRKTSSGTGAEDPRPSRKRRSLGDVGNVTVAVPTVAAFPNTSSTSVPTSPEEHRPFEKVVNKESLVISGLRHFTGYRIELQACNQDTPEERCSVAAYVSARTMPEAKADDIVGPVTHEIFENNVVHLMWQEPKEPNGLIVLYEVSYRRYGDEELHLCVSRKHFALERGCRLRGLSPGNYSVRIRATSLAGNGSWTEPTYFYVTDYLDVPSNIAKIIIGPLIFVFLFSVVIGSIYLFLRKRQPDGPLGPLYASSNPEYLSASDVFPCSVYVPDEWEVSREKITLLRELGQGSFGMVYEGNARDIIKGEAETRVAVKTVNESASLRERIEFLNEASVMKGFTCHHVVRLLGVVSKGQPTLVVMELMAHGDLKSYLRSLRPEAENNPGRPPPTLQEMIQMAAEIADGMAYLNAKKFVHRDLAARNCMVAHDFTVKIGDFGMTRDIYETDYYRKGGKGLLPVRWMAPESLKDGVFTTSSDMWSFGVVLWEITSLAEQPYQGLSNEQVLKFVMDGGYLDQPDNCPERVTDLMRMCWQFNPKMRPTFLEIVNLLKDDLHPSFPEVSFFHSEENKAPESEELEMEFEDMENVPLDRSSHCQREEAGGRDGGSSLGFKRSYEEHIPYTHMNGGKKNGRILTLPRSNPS
Sequence of MAPKAPK2 (P49137 whole entry): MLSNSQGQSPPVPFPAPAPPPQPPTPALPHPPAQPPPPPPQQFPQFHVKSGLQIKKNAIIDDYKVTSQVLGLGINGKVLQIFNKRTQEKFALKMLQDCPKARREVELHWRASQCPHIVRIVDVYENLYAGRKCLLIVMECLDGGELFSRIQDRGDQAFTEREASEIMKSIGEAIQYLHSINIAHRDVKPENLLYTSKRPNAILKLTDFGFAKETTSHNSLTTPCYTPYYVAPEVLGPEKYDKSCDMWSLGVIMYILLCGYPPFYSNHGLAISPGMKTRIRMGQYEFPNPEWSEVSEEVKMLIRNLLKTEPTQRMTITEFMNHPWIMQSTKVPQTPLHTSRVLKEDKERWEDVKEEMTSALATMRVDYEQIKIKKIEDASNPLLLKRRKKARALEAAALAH
Sequence of CHK1 (O14757 whole entry): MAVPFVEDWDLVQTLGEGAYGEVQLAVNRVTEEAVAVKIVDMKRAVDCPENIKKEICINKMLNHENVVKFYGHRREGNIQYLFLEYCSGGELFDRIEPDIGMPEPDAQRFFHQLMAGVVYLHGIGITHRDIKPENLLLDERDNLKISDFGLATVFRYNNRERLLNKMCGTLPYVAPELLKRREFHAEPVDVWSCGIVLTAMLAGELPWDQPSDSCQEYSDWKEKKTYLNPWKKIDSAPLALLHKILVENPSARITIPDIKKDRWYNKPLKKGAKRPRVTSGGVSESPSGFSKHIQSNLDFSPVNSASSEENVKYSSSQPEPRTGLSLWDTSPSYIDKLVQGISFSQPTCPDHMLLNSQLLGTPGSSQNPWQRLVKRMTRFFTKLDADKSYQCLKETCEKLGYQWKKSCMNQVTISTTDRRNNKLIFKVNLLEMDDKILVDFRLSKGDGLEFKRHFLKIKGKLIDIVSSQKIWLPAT
Sequence of Ret (P07949 29-1114): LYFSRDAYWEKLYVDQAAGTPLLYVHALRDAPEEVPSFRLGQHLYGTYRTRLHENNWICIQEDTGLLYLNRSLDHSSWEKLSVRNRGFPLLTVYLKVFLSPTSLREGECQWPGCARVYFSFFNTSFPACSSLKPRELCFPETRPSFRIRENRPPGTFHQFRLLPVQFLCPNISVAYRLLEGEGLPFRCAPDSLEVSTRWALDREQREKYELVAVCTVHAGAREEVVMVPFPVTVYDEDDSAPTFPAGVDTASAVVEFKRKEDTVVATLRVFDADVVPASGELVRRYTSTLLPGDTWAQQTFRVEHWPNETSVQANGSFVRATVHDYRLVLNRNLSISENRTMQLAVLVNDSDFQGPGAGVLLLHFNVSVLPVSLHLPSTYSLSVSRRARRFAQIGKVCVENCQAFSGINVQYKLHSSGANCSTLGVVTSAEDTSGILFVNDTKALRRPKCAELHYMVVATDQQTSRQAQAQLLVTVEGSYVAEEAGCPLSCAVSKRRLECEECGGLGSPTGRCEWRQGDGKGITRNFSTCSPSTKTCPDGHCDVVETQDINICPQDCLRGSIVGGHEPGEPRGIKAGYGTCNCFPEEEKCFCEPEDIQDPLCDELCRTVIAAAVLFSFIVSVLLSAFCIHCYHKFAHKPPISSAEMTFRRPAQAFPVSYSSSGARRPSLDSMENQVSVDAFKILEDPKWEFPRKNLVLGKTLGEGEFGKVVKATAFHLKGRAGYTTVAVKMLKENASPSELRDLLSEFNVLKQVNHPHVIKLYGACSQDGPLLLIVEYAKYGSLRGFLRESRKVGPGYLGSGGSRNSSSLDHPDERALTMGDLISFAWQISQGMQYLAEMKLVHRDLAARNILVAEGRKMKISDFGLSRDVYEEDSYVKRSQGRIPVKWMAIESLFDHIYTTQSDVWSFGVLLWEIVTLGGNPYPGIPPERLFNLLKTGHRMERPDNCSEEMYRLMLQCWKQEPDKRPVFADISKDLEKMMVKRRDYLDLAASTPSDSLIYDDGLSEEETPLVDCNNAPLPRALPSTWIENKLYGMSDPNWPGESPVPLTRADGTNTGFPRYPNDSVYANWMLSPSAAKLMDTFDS
Sequence of EphB4 (P54760 16-987): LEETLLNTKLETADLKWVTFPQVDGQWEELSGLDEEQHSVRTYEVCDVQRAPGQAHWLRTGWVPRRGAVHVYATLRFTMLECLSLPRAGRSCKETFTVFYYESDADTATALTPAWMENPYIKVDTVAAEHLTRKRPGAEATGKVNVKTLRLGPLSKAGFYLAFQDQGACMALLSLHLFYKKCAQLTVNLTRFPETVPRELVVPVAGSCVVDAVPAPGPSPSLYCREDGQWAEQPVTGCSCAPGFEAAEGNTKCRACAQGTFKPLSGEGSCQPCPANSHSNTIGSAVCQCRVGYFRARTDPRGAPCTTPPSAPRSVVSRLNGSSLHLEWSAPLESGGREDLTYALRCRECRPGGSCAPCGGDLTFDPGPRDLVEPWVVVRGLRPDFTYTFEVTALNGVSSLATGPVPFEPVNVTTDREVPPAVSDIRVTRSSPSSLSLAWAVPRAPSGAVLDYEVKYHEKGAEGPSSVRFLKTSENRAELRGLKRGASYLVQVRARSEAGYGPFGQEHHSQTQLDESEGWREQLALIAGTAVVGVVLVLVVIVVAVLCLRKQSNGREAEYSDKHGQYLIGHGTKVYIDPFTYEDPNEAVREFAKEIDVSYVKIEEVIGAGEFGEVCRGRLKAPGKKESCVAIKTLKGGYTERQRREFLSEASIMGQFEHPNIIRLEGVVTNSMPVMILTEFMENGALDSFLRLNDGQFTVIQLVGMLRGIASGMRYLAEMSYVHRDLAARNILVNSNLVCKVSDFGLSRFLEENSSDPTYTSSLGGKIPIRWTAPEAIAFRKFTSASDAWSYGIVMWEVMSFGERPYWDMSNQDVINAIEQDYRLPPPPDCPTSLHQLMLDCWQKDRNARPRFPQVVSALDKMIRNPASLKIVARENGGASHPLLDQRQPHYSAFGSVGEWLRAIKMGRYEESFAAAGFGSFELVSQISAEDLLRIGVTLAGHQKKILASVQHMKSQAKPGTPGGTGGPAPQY

Turning to `CN(C)Cc1ccc(/C=C/c2n[nH]c3cc([C@H]4C[C@@]45C(=O)Nc4ccccc45)ccc23)cc1` (racemic) [Compound 35], the “% Inhibition at 10 μM Concentration” value in the assay with AMPKalpha is 69%. Further, in [1], the GI50 was less than 5 µM. The inhibition at 10 µM on CHK1 was 43%; at RSK2, 22%; on ERK (P42mapk) it was 2%; on PDGFRbeta, 59%; on PKA, -7%; at CSK it was 75%. The inhibition at 10 µM was 1% at ERK1; -22% at p38alpha; 100% on Abl kinase; 100% on Lck; -3% at CHK2; 60% on CDC2/CDK1. Also, the inhibition at 10 µM on FGFR4 was -12%; at ROCK2, 32%; on MEK1/MAP2K1, -2%; on c-Met, 61%; at CaMK4, -4%; at JNK 2, 5%. Besides, the inhibition at 10 µM at IRK (InsR) came out at 5%; at Brk, 53%; at MAPKAPK2 it was 2%; at FLT-1 (VEGFR1) it was 30%; on EphB4, 65%; at Src it was 51%. In addition, the inhibition at 10 µM came to 86% on Lyn; 2% on PDK1; 101% at TRKA; 86% on Ret; 26% on PKCbeta 2.

Turning to `COc1ccc2c(c1)/C(=C\c1ccc3c(/C=C/c4ccc(N5CCN(C)CC5)nc4)n[nH]c3c1)C(=O)N2` [Compound 3], the inhibition at 10 µM at CHK1 was 0%; at RSK2, -4%; at ERK (P42mapk), 15%; at PDGFRbeta, 14%; on PKA, -5%; at Syk (Syk, 10 μM), -1%. Also, the inhibition at 10 µM at CSK is 6%; at ERK1 it was 2%; at p38alpha, 22%; at Abl kinase it was 23%; on Lck, 13%; on CHK2, -4%. Moreover, the inhibition at 10 µM is 11% at CDC2/CDK1; -30% on FGFR4; -20% at ROCK2; -3% on MEK1/MAP2K1; 2% at c-Met; 6% on CaMK4. For the same compound, the inhibition at 10 µM was 15% on JNK 2; 2% at IRK (InsR); -2% at Brk; 6% at MAPKAPK2; 30% at FLT-1 (VEGFR1); -1% on EphB4. The inhibition at 10 µM at Src was 26%; on Lyn, -2%; at PDK1, 5%; at TRKA, 43%; on Ret it was 33%; at PKCbeta 2, 4%. For the same compound, in assay [2], the GI50 is less than 5 µM.

Turning to `COc1ccc2c(c1)[C@@]1(C[C@@H]1c1ccc3c(-c4ccc(N5CCN(C)CC5)nc4)n[nH]c3c1)C(=O)N2` (racemic) [Compound 2], in assay [1], the GI50 is less than 5 µM. Moreover, the inhibition at 10 µM on Syk was -1%.

What is called % Inhibition is the share of the control response that was lost under treatment. A low value points to little suppression. In general, GI50 refers to the concentration giving 50% growth inhibition.

The record behind these values is patent US8933070B2, “Methods of targeting PTEN mutant diseases and compositions therefor” (University Health Network, priority 2010, dated 2015).
